According to EP4775575A1, “COMPOUND USED AS CDK4 KINASE INHIBITOR AND USE THEREOF” (TYK Medicines, Inc., priority 2023, dated 2025):
pIC50: −log10 of the molar value.

What was measured:
[1] = test system: Human breast cancer cells MCF-7; test: Cell anti-proliferation assay (MTT), MCF-7; type: cell-based; conditions: Homo sapiens, MCF7, 120 h, MCF-7 cells, incubated for 5 days
Description: (§1) Human breast cancer cells MCF-7, human ovarian cancer cells A2780, human mantle cell lymphoma cells JEKO-1. DMEM medium (Bio-Channel), DMSO (dimethyl sulfoxide), MTT (thiazolyl blue), 0.25% EDTA-Trypsin (trypsin digestive solution), 1×PBS (phosphate buffered saline, pH 7.2), 96-well plate (Corning), fetal bovine serum (FBS), 10,000 U/mL penicillin-G/streptomycin, high-speed refrigerated centrifuge (EPPENDORF 5810R), and microplate reader (Tecan Spark).
(§2) • A) Tumor cells were cultured in DMEM (high glucose, containing 10% FBS and 100 U/mL penicillin-G/streptomycin) at 37 °C, 5% CO2 and saturated humidity until 80-90% confluence. • B) The medium in the 10 cm culture dish was removed. • C) Cells were rinsed once with 10 mL of 1×PBS. • D) 4 mL of 0.25% EDTA-Trypsin was added, and the cells were digested in a 37 °C, 5% CO2 incubator for 5 minutes. The mixture was transferred to a 15 mL centrifuge tube, centrifuged at 200 g for 5 minutes, and the supernatant was discarded to obtain cell pellet. • E) The cells were resuspended in 4 mL of DMEM medium, counted, and adjusted to 50,000 cells/mL. • F) 100 µL of cell suspension was added to each well of a 96-well plate, and the plate was incubated overnight at 37 °C in a 5% CO2 incubator.
(§3) • A) Gradient dilution solutions of the test compounds were prepared: the test compound was prepared into a 1 mM stock solution. Then 1.5 µL of the stock solution was dissolved in 1.5 mL of DMSO-free medium, followed by 3-fold serial gradient dilution with medium containing 0.1% DMSO to give 9 concentrations.
(§4) • A) The cell culture plate was taken out, and 10 µL of 5 mg/mL MTT was added in a biological safety cabinet; • B) The plate was returned to the incubator and incubated for another 3 hours; • C) The cell culture plate was taken out and the medium was removed, 100 µL of isopropanol (containing 0.4 mM HCl, 0.1% NP-40) was added, and the plate was shaken at room temperature for 30 minutes; • D) The absorbance at 570 nm was measured using a TECAN microplate reader.

[2] = test system: human mantle cell lymphoma cells JEKO-1; test: Cell anti-proliferation assay (MTT), JEKO-1; type: cell-based; conditions: Homo sapiens, 120 h, JEKO-1 cells, incubated for 5 days
Description: as §1, §2, §3, §4

CDK4/CycD1 = CDK4/CycD1 (Homo sapiens, UniProt P11802); test: Kinase activity assay (MSA, EZ Reader) against CDK4
[3] = test system: human ovarian cancer cells A2780; test: Cell anti-proliferation assay (MTT), A2780; type: cell-based; conditions: Homo sapiens, 120 h, incubated for 5 days
Description: as §1, §2, §3, §4

CDK6/CyclinD3 = molecular target: T1, CDK6/CyclinD3 (Homo sapiens, UniProt Q00534); test: Kinase activity assay (MSA, EZ Reader) against CDK6; type: biochemical; conditions: CDK6/CyclinD3 5.00 nM, ATP 350 µM, FL-Peptide34, 10mM MgCl2
T1 construct: purchased Carna 04-107
T1 sequence (Q00534 whole entry): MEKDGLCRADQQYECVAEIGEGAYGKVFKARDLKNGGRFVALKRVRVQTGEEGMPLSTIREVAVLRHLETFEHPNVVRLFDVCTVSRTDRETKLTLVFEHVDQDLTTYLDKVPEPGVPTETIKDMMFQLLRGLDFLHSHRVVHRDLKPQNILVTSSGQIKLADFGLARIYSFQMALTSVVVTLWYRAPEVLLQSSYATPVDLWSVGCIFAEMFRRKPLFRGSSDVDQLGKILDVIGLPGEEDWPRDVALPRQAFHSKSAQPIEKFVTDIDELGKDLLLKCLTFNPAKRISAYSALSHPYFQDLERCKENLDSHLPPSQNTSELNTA
T1 sequence (P30281 whole entry partner): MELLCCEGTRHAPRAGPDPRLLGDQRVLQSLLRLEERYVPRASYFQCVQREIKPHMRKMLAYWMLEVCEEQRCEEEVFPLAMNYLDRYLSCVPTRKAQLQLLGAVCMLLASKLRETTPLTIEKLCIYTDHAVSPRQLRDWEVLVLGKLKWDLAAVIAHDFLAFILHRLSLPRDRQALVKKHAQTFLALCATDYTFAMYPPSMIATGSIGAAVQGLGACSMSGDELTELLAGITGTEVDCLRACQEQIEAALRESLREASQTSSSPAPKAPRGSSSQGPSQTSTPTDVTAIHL

CDK4/CycD1, sequence (P11802 whole entry): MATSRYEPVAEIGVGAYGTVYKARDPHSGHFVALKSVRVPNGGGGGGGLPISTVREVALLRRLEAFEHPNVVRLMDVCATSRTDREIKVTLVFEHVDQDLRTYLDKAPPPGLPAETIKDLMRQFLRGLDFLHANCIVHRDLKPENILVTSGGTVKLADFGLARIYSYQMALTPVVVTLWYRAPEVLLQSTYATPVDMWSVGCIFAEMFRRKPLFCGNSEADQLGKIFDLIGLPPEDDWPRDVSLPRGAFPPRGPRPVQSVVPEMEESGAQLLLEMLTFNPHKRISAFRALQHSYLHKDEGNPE

SMILES	pIC50 [1]	pIC50 [2]	pIC50 (CDK4/CycD1)	pIC50 [3]	pIC50 (CDK6/CyclinD3)
CC(C)n1c(N(C)CCO)nc2c(F)cc(-c3nc(N[C@@H]4CCOC[C@H]4O)ncc3Cl)cc21 [TB-9, (3S,4R)-4-((5-chloro-4-(4-fluoro-2-((2-hydroxyethyl)(methyl)amino)-1-isopropyl-1H-benzo[d]imidazol-6-yl)pyrimidin-2-yl)amino)tetrahydro-2H-pyran-3-ol]	5.70 to 6.30	≥ 6.30	7.40	≥ 6.30	6.65
CN1CCCn2c1nc1c(F)cc(-c3nc(Nc4ccc(C#N)cc4)ncc3Cl)cc12 [TB-133, 4-((5-chloro-4-(9-fluoro-1-methyl-1,2,3,4-tetrahydrobenzo[4,5]imidazo[1,2-a]pyrimidin-7-yl)pyrimidin-2-yl)amino)benzonitrile]	≥ 6.30	≥ 6.30	7.75	≥ 6.30	7.19
CC(C)n1c(N2CCOC2=O)nc2c(F)cc(-c3nc(NC4CCN(S(C)(=O)=O)CC4(F)F)ncc3Cl)cc21 (stereo not shown) [TB-35]	≥ 6.30	≥ 6.30	7.81	≥ 6.30	6.78
CC(C)n1c(N(C)C)nc2c(F)cc(-c3nc(NC4CCOCC4)ncc3Cl)cc21 [TB-2, 6-(5-chloro-2-((tetrahydro-2H-pyran-4-yl)amino)pyrimidin-4-yl)-4-fluoro-1-isopropyl-N,N-dimethyl-1H-benzo[d]imidazol-2-amine]	≥ 6.30	≥ 6.30	7.75	≥ 6.30	6.50
CC(C)n1c(N(C)C)nc2c(F)cc(-c3nc(N[C@@H]4CCN(S(C)(=O)=O)C[C@H]4O)ncc3Cl)cc21 [TB-13, (3R,4R)-4-((5-chloro-4-(2-(dimethylamino)-4-fluoro-1-isopropyl-1H-benzo[d]imidazol-6-yl)pyrimidin-2-yl)amino)-1-(methylsulfonyl)piperidin-3-ol]	≥ 6.30	≥ 6.30	8.90	≥ 6.30	7.73
CC(C)n1c(N2CCOC2=O)nc2c(F)cc(-c3nc(Nc4ccc(S(=O)(=O)NCCN(C)C)cc4)nc4[nH]cnc34)cc21 [TB-70]	≥ 6.30	≥ 6.30	7.73	≥ 6.30	7.12
CC(C)n1c(N(C)C)nc2c(F)cc(-c3nc(NC4CCN(S(C)(=O)=O)CC4)ncc3Cl)cc21 [TB-3, 6-(5-chloro-2-((1-(methylsulfonyl)piperidin-4-yl)amino)pyrimidin-4-yl)-4-fluoro-1-isopropyl-N,N-dimethyl-1H-benzo[d]imidazol-2-amine]	≥ 6.30	≥ 6.30	8.16	≥ 6.30	7.13
CC(C)n1c(N(C)C)nc2c(F)cc(-c3nc(Nc4ccc(N5CCNCC5)cn4)ncc3Cl)cc21 [TB-18, 6-(5-chloro-2-((5-(piperazin-1-yl)pyridin-2-yl)amino)pyrimidin-4-yl)-4-fluoro-1-isopropyl-N,N-dimethyl-1H-benzo[d]imidazol-2-amine]	≥ 6.30	≥ 6.30	8.58	≥ 6.30	7.86
CC1CCN(C)c2nc3c(F)cc(-c4nc(NC5CCN(S(C)(=O)=O)CC5)ncc4Cl)cc3n21 (stereo not shown) [TB-51, 5-chloro-4-(9-fluoro-1,4-dimethyl-1,2,3,4-tetrahydrobenzo[4,5]imidazo[1,2-a]pyrimidin-7-yl)-N-(1-(methylsulfonyl)piperidin-4-yl)pyrimidin-2-amine]	≥ 6.30	≥ 6.30	8.65	≥ 6.30	7.56
CC(C)n1c(N(C)C)nc2c(F)cc(-c3nc(N[C@H]4CC[C@H](NS(C)(=O)=O)CC4)ncc3Cl)cc21 [TB-5]	≥ 6.30	≥ 6.30	8.37	≥ 6.30	7.15
CCN1CCN(Cc2ccc(Nc3ncc(Cl)c(-c4cc(F)c5nc(N(C)C)n(C(C)C)c5c4)n3)nc2)CC1 [TB-16]	≥ 6.30	≥ 6.30	8.16	≥ 6.30	7.35
